Four compounds from BindingDB's records for doi:10.1021/jm0604777 (University of Bristol, 2006) can be followed below.

Each structure is given as a SMILES string.

A short description of test [1]: Binding affinity to DOR in guinea pig brain membrane.
Test [2] addresses Delta-type opioid receptor (Homo sapiens, UniProt P41143). Description: Displacement of [3H]Cl-DPDPE from human recombinant DOR expressed in CHO cells.

Chain of Delta-type opioid receptor (P41143 whole entry): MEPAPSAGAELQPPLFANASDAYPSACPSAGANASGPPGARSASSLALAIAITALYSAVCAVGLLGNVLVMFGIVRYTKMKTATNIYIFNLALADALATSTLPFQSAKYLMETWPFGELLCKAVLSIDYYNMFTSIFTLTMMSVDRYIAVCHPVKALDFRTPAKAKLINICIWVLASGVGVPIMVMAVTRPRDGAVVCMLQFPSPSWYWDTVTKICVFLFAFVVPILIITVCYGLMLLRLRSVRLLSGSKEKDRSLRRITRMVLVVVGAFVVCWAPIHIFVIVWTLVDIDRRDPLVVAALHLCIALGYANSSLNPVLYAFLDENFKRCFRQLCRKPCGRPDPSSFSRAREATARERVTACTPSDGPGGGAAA

Regarding `COc1ccc2c3c1O[C@H]1C(=O)CC[C@@]4(NC(=O)/C=C/c5ccccc5C)C(C2)N(CC2CC2)CC[C@]314` [N-cyclopropylmethyl-14beta-(2'-methylcinnamoylamino)-7,8-dihydronorcodeinone], the affinity in test [1] corresponds to a Ki of 2.3 nM.

As for `Cc1ccccc1/C=C/C(=O)N[C@@]12CCC(=O)[C@@H]3Oc4c(O)ccc5c4[C@@]31CCN(CC1CC1)C2C5` [N-cyclopropylmethyl-14beta-(2'-methylcinnamoylamino)-7,8-dihydronormorphinone], the Ki (commonly a measure of affinity in units of concentration, obtained from inhibition or displacement) in test [2] is 1.3 nM.

In the case of `Cc1ccc(CCC(=O)N[C@@]23CCC(=O)[C@@H]4Oc5c(O)ccc6c5[C@@]42CCN(C)C3C6)cc1` [N-[(1R,13R,17S)-10-hydroxy-4-methyl-14-oxo-12-oxa-4-azapentacyclo[9.6.1.0^{1,13}.0^{5,17}.0^{7,18}]octadeca-7(18),8,10-trien-17-yl]-3-(4-methylphenyl)propanamide], the Ki in test [2] is 1.3 nM.

The compound `COc1ccc2c3c1O[C@H]1C(=O)CC[C@@]4(NC(=O)/C=C/c5ccccc5Cl)C(C2)N(CC2CC2)CC[C@]314` [N-cyclopropylmethyl-14beta-(2'-chlorocinnamoylamino)-7,8-dihydronorcodeinone] returned an inhibitory constant (Ki) in test [1] of 7.2 nM.
